Measurements published in patent publication US9512139B2, “Conformationally constrained, fully synthetic macrocyclic compounds” (POLYPHOR AG, priority 2009, dated 2016).
pEC50: −log10 of the molar value.

How the values were obtained:
[1] = target: T1, Motilin Receptor (Homo sapiens, UniProt O43193); assay: Ca2+ assay (FLIPR) for the GPCR motilin receptor, agonist and antagonist mode; type: cell-based; conditions: antagonist mode
T1 construct: host or cells: Ca2+ optimized hematopoietic cell lines (rat)
T1 sequence (O43193 whole entry, species assumed): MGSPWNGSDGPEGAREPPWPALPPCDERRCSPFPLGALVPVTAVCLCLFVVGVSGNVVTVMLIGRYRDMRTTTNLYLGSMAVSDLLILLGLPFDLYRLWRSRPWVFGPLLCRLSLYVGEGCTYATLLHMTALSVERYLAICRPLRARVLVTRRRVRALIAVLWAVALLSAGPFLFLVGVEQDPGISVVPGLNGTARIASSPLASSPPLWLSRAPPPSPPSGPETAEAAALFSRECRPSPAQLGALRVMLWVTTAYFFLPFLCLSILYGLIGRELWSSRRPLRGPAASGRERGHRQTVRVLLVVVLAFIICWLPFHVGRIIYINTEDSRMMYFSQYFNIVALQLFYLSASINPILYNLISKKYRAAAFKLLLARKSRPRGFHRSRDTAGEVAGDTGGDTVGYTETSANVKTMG

[2] = target: T2, Prostaglandin F (FP) Receptor (Homo sapiens, UniProt P43088); assay: Ca2+ assay (FLIPR) for the GPCR prostaglandin F (FP) receptor, agonist and antagonist mode; type: cell-based; conditions: 10 μM
T2 construct: host or cells: Ca2+ optimized hematopoietic cell lines (rat)
T2 sequence (P43088 whole entry): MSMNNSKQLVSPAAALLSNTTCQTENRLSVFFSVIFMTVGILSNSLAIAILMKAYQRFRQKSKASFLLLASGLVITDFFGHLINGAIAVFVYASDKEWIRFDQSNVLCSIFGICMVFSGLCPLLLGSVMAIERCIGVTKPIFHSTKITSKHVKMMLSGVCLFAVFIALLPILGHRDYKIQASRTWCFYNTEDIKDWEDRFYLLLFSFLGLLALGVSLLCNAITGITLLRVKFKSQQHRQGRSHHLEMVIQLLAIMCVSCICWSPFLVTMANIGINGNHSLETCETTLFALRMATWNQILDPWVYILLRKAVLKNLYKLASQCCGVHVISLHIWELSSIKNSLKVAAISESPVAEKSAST
Method in brief: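 Ca2+-optimized rat hematopoietic cells carrying the receptor were loaded with Fluo-8 in HBSS/20 mM HEPES/2.5 mM probenecid and read on FLIPR. Agonist mode: 10 min compound incubation at 25 °C, % activation relative to Emax. Antagonist mode: stimulation at EC80 of the reference agonist (prostaglandin F2α for FP, 2MeSATP for P2Y1), fluorescence monitored 180 s.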

[3] = target: T3, 5-hydroxytryptamine 2B (5-HT2B) Receptor (Homo sapiens, UniProt P41595); assay: Ca2+ assay (FLIPR) for the GPCR 5-HT2B receptor, agonist and antagonist mode; type: cell-based
T3 construct: host or cells: Ca2+ optimized hematopoietic cell lines (rat)
T3 sequence (P41595 whole entry, species assumed): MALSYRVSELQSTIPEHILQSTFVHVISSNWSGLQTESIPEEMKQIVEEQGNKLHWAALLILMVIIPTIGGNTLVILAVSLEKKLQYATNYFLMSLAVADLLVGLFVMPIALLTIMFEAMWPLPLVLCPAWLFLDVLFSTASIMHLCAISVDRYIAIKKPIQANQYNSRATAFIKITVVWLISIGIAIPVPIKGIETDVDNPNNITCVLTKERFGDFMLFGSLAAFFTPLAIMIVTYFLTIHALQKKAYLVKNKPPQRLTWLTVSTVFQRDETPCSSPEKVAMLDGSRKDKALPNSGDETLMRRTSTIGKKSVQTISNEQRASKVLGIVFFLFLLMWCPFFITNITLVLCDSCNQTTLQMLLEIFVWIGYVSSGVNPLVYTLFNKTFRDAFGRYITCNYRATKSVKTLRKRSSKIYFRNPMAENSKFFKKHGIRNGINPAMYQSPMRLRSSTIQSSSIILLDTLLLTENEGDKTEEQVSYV
Experimental: Ca^2+ Assays for the GPCRs Motilin Receptor, Prostaglandin F (FP) Receptor, 5-hydroxytryptamine 2B (5-HT2B) Receptor, and Purinoreceptor P2Y1
Assays were performed using on a FLIPR^TETRA fluorometric imaging plate reader (Molecular Devices) with ScreenWorks Version 2 (Molecular Devices) as device operating and data analysis software.
Dose dependent agonist and antagonist activities were determined. Percentage activation and percentage inhibition values were determined.
Percentage activation was determined upon initial addition of the sample compounds followed by 10 minutes incubation at 25° C. Following compound incubation, reference agonists were added at EC80 to determine percentage inhibition.
Reference agonists were purchased from reputable commercial vendors and prepared according to each ligand's specifications. All handling of ligands were done to ensure proper control throughout the experiments.
Example compounds were weighed on a Microbalance (Mettler MX5) and dissolved in 100% DMSO to a final concentration of 2.5 mM and subsequently diluted into the assay buffer.
The Assay buffer was a supplemented HBSS (Hank's Balanced Salt Solution). HBSS was supplemented with 20 mM HEPES (4-(2-hydroxyethyl)-piperazin-1-ethansulfonic acid) and 2.5 mM Probenecid (Sigma P8761).
GPCR assays were performed using Ca^2+ optimized hematopoietic cell lines (rat) with cultures never exceeding 90% confluency. […] After seeding, the assay plates were incubated for forty-five (45) minutes at room temperature. After room temperature incubation, the assay plates were incubated at 37° C. 5% CO2 for 24 hours prior to assaying.
All GPCR assays were performed using Fluo-8 Ca^2+ dye. Ca^2+ dye was prepared at 1× dye concentration in GPCR assay buffer. After 24 hours of incubation, cells were washed with GPCR assay buffer, and then Ca^2+-dye (100 μL/well) was added.
The plates were incubated for 90 minutes at 30° C. 5% CO2 prior to FLIPR assay.
Compound plates were prepared to add 50 μL/well during the agonist assay mode. During the FLIPR assay, 50 μL/well from the compound plate was diluted 3-fold into the existing 100 μL/well from the dye loading step. Therefore all compounds were prepared as 3× the final concentration desired in the assay.
After completion of the first single addition assay run, assay plate was removed from the FLIPR Tetra and placed at 25° C. for seven (7) minutes before antagonist assay.
Using the EC80 values determined during the agonist assay, all pre-incubated sample compound and reference antagonist (if applicable) wells were stimulated at the EC80 of the reference agonist. As reference ligands for the first three assays their obvious natural ligands motilin, prostaglandin F2α, and serotonin (5-HT, 5-Hydroxytryptamine) were used; and for the P2Y1 assay 2MeSATP (2-methyl-thio-adeno-sine 5′-triphosphate, i.e. (2R,3S,4R)-5-(6-amino-2-methylsulfanyl-purin-9-yl)-3,4-dihydroxy-tetrahydrofuran-2-yl]methyl (hydroxy-phosphonooxy-phosphoryl)hydrogen phosphate) was applied.
After the addition of the reference agonist fluorescence was monitored for 180 sec using FLIPR Tetra.
Data Analysis and Results:
From the FLIPR data, with negative control correction enabled, the maximum statistic for each well was exported and percentage activation relative to Emax control was calculated.

[4] = in vitro; type: in vitro ADME, human; conditions: human, plasma; for Plasma Stability T½ [min] hum / Plasma Stability 240 min hum [% remain.]: 10 µM; for Plasma Stability 240 min hum [% remain.]: 4 h
Experimental: Example compounds were dissolved in DMSO/H2O 90:10 to a final concentration of 10 mM for plasma stability determination and metabolic stability determination.
Human plasma (3-5 donors, Blutspendedienst SRK, Basel) and CD-1 mouse plasma (mixed gender pool >50 animals, Innovative Research, CA, USA) are both sodium citrate stabilized. The assay is performed in triplicates at 10 μM compound concentration and 37° C. Samples are taken at 0, 15, 60, and 240 minutes and stopped by precipitation with 2 volumes of acetonitrile. The supernatant is collected, evaporated and reconstituted in a 5% acetonitrile solution to be analyzed by HPLC/MS/MS. The resulting peak area counts are expressed in percent of the 0 value and used to determine the endpoint stability in % and the half life in minutes. In order to monitor assay integrity the degradation of propantheline is assayed with every experimental set.

[5] = in vitro; type: in vitro ADME, mouse; conditions: both, CD-1, mouse, plasma, 10 µM; for Plasma Stability 240 min mouse [% remain.]: 4 h
[6] = Metabolic stability assay, human microsomes; type: in vitro ADME; conditions: human, microsomes; for half-life at 10 µM: both sexes; for Metabolic Stability 60 min hum [% remain.] / Metabolic Stability T½ [min] hum: both, 10 µM; for Metabolic Stability 60 min hum [% remain.]: 1 h
[7] = Metabolic stability assay, CD-1 mouse microsomes; type: in vitro ADME; conditions: CD-1, mouse, microsomes; for Metabolic Stability 60 min mouse [% remain.] / Metabolic Stability T½ [min] mouse: both, 10 µM; for Metabolic Stability 60 min mouse [% remain.]: 1 h
[8] = Plasma stability assay, rat plasma (values in parentheses); type: in vitro ADME; conditions: value in parentheses
[9] = Metabolic stability assay, rat microsomes (values in parentheses); type: in vitro ADME; conditions: value in parentheses
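For Plasma Stability 240 min mouse [% remain.] in this document: sodium citrate stabilized mouse plasma, parent compound quantified by HPLC/MS/MS relative to its peak area at time zero, run in triplicate.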
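For Plasma Stability T½ [min] mouse in this document: sodium citrate stabilized mouse plasma, parent compound quantified by HPLC/MS/MS relative to its peak area at time zero, run in triplicate.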

Row | IC50 [1] [µM] | inhibition at 10 µM ([1]; at 10 μM) [%] | inhibition at 10 µM [2] [%] | Plasma Stability T½ [min] hum [4] [min] | Plasma Stability 240 min hum [% remain.] [4] [% remain.] | half-life at 10 µM [6] [h] | Metabolic Stability 60 min hum [% remain.] [6] [% remain.] | half-life at 10 µM ([7]; both sexes) [h] | Metabolic Stability 60 min mouse [% remain.] [7] [% remain.] | Metabolic Stability T½ [min] mouse [7] [min] | half-life at 10 µM [4] [h] | Metabolic Stability T½ [min] hum [6] [min] | Plasma Stability 240 min (rat) [% remain.] [8] | Plasma Stability T½ [min] (rat) [8] | Metabolic Stability 60 min (rat) [% remain.] [9] [% remain.] | Metabolic Stability T½ [min] (rat) [9] | Compound | pEC50 [3] | Agonist activity [% activation at 12.5 μM] [3] [%] | Plasma Stability T½ [min] mouse [5] [min] | Plasma Stability 240 min mouse [% remain.] [5] [% remain.]
1 | 2.7 | 95 | 44 | > 240 | 99 | 0.283 | 7 | 0.583 | 33 |  |  |  |  |  |  |  | CN1CC(=O)N2C[C@@H](NC(=O)Cc3c[nH]c4ccccc34)C[C@H]2COc2ccc(F)cc2C(=O)N(C)[C@H](C(=O)NCCc2c[nH]c3ccccc23)CCC1=O [Ex. 12, (2S,11S,19aS)-15-fluoro-2-{[2-(1H-indol-3-yl)acetyl]amino}-N-[2-(1H-indol-3-yl)ethyl]-7,12-dimethyl-5,8,13-trioxo-2,3,6,7,8,9,10,11,12,13, 19,19a-dodecahydro-1H,5H-pyrrolo[2,1-c] [1,4,7,12]benzoxatriazacyclopentadecine-11-carboxamide] | 5.48 | 36 | > 240 | 100
2 |  |  |  | > 240 | 85 | 0.367 | 2 |  | 55 | > 60 |  |  |  |  |  |  | CN1CC(=O)N2C[C@@H](NC(=O)OC(C)(C)C)C[C@H]2COc2ccc(F)cc2C(=O)N(C)[C@H](C(=O)NCCc2c[nH]c3ccccc23)CCC1=O [Ex. 30, tert-butyl N-[(2S,11S,19aS)-15-fluoro-11-({[2-(1H-indol-3-yl)ethyl]amino}carbonyl)-7,12-dimethyl-5,8,13-trioxo-2,3,6,7,8,9,10,11,12,13,19,19a-dodecahydro-1H,5H-pyrrolo[2,1-c] [1,4,7,12]benzoxatriazacyclopentadecin-2-yl]carbamate] | 5.48 | 48 | > 240 | 100
3 |  |  |  |  | 48 |  | 65 |  | 87 | > 60 | 4 | > 60 | (100) % remain. | (240) min | 72 | 60 (60) min | COCCNC(=O)[C@@H]1COCC(=O)N2C[C@@H](N3CCN(Cc4ccccc4)CC3)C[C@H]2COc2cccc(c2)C(=O)N1C [Ex. 378, (4S,6S,13S)-6-(4-benzylpiperazino)-N-(2-methoxyethyl)-14-methyl-9,15-dioxo-2,11-dioxa-8,14-diazatricyclo[14.3.1.0^4,8]icosa-1(20),16,18-triene-13-carboxamide] |  |  |  | 
4 |  |  |  | > 240 | 95 |  | 72 |  | 86 | > 60 |  | > 60 | (100) % remain. | (240) min | 97 | 60 (60) min | COCCNC(=O)[C@@H]1COCC(=O)N2C[C@@H](N3CCN(C)CC3)C[C@H]2COc2cccc(c2)C(=O)N1C [Ex. 377, (4S,6S,13S)-N-(2-methoxyethyl)-14-methyl-6-(4-methylpiperazino)-9,15-dioxo-2,11-dioxa-8,14-diazatricyclo[14.3.1.0^4,8]icosa-1(20),16,18-triene-13-carboxamide] |  |  |  | 
5 |  |  |  | > 240 | 68 | 0.767 | 43 |  | 73 | > 60 |  |  | (100) % remain. | (240) min | 72 | 60 (60) min | CN1C(=O)c2cccc(c2)OC[C@@H]2C[C@H](NC(=O)CCc3ccncc3)CN2C(=O)COC[C@H]1C(=O)NCc1ccc2ccccc2c1 [Ex. 372, (4S,6S,13S)-14-methyl-N-(2-naphthylmethyl)-9,15-dioxo-6-{[3-(4-pyridinyl)propanoyl]amino}-2,11-dioxa-8,14-diazatricyclo[14.3.1.0^4,8]icosa-1(20),16,18-triene-13-carboxamide] |  |  |  | 

Row | Compound | IC50 [1] [µM] | inhibition at 10 µM ([1]; at 10 μM) [%] | inhibition at 10 µM [2] [%] | Plasma Stability T½ [min] hum [4] [min] | Plasma Stability 240 min hum [% remain.] [4] [% remain.] | half-life at 10 µM [6] [h] | Metabolic Stability 60 min hum [% remain.] [6] [% remain.] | half-life at 10 µM ([7]; both sexes) [h] | Metabolic Stability 60 min mouse [% remain.] [7] [% remain.] | Metabolic Stability T½ [min] mouse [7] [min] | half-life at 10 µM [4] [h] | Metabolic Stability T½ [min] hum [6] [min] | Plasma Stability 240 min (rat) [% remain.] [8] | Plasma Stability T½ [min] (rat) [8] | Metabolic Stability 60 min (rat) [% remain.] [9] [% remain.] | Metabolic Stability T½ [min] (rat) [9] | pEC50 [3] | Agonist activity [% activation at 12.5 μM] [3] [%] | Plasma Stability T½ [min] mouse [5] [min] | Plasma Stability 240 min mouse [% remain.] [5] [% remain.]
6 | CN(C)CC(=O)N[C@H]1C[C@H]2COc3ccc(F)cc3C(=O)N(C)[C@H](C(=O)NCCc3c[nH]c4ccccc34)CCC(=O)N(C)CC(=O)N2C1 [Ex. 16, (2S,11S,19aS)-2-{[2-(dimethylamino)acetyl]amino}-15-fluoro-N-[2-(1H-indol-3-yl)ethyl]-7,12-dimethyl-5,8,13-trioxo-2,3,6,7,8,9,10,11, 12,13,19,19a-dodecahydro-1H,5H-pyrrolo [2,1-c] [1,4,7,12]benzoxatriazacyclopentadecine-11-carboxamide] |  |  |  | > 240 | 95 | 0.633 | 31 |  | 79 | > 60 |  |  |  |  |  |  | 5.18 | 45 | > 240 | 97
7 | CC(=O)N[C@H]1C[C@H]2COc3ccc(F)cc3C(=O)N(C)[C@H](C(=O)NCCc3c[nH]c4ccccc34)CCC(=O)N(C)CC(=O)N2C1 [Ex. 9, (2S,11S,19aS)-2-(acetylamino)-15-fluoro-N-[2-(1H-indol-3-yl)ethyl]-7,12-dimethyl-5,8,13-trioxo-2,3,6,7,8,9,10,11,12,13,19,19a-dodecahydro-1H,5H-pyrrolo[2,1-c] [1,4,7,12]benzoxatriazacyclopentadecine-11-carboxamide] |  |  |  | > 240 | 99 | 0.533 | 20 |  | 80 | > 60 |  |  |  |  |  |  | 4.92 | 48 | > 240 | 93
